# Laboratory results from patent US6087336A, “Peptide derivatives useful in treating autoimmune diseases” (Zeneca Limited, priority 1996, dated 2000).
# Legend:
# HLA-DR4Dw4 = target: T1, HLA-DR4Dw4 (Homo sapiens, UniProt P01903+P01911, A100K/A169T/F76Y/I96L/K127E/L162R/M171V/N62H/P40V/Q125Y/R42H/S133A/S149N/S66Y/V115G/V209L/W38E); test: Test A: purified HLA-DR peptide in vitro binding assay; settings: purified HLA-DR4Dw4, biotin-FHA307-320
# T1 construct: a cDNA encoding the β chain is cloned into the transfer vector pAcUW1; made in house; host or cells: Sf21 insect cells, double-recombinant baculovirus
# Protocol: Test A: Purified HLA-DR peptide in vitro binding assay. […]. At the end of the incubation period 100 μl of the incubate is transferred to Enzyme Linked lmmunoSorbant Assay (ELISA) plates (Nunc) previously coated with an anti-MHC antibody (L243--American Type Culture Collection (ATCC) HB55 --as described in Lampson and Levy (1980) J. Immunol. 125, 293-299) at a concentration of 10 μg/ml for 1 hour at room temperature and blocked thereafter for 1 hour with 1% bovine serum albumin (BSA) in PBS and 0.05% Tween 20. After a further 1 hour period the unbound peptide is washed away and a 1/4,000 dilution of streptavidin peroxidase (Sigma) in PBS with 0.01% of a suitable detergent such as NP40 (Sigma) added for 2 hours at room temperature. After further washing, tetramethylbenzidene (TMB) substrate solution (1 TMB tablet (Sigma) in 10 mIs of 0.1 M citrate/acetate buffer, pH 6.0 with 36 μl urea hydrogen peroxide (UHPO) (Fluka)) is added to each of the plates. The reaction is stopped by adding 2M sulphuric acid (10 μl per well) and the absorbance read at 450 nm to quantify the amount of peptide bound. The inhibitory activity of peptides is obtained by plotting absorbance against concentration.
# The purified HLA-DR4Dw4 may be obtained as follows:
# (i) Expression of HLA-DR in the Baculovirus System
# The expression of recombinant proteins in insect cells from baculovirus vectors is an established procedure to obtain high yields of recombinant protein [Luckow, V A & Summers, M D, 1988, Biotechnology, 6, 47-551]. To enable the expression of the heterodimeric HLA-DR, eg. HLA-DR4Dw4, from a single recombinant baculovirus vector (as opposed to having separate recombinant viruses for the α and β chains and then doing a co-infection), a double-recombinant baculovirus is constructed which carries both the α and β chains.
# A cDNA encoding the sequence of the α polypeptide is cloned into the transfer vector pacYM1 [Matsuura, Y; Possee, R D; Overton, H A & Bishop, D H L, 1987, J. Gen. […] The molecular genetic techniques used to construct the recombinant vectors are likewise readily available in the literature and are most fully described by Sambrook, J; Fritsch, E F & Maniatis T, (1989) [Molecular Cloning. […]
# To create the double-recombinant baculovirus, a cDNA encoding the β chain is cloned into the transfer vector pAcUW1 [Weyer, U; Knight, S & Possee, R D, 1990, J. Gen. […] Double-recombinant viruses are detected by spotting insect cells, infected with randomly picked viruses from the transfection, onto membranes and reacting them with a monoclonal antibody, e.g. L243, which specifically recognises the HLA-DR heterodimer. Binding of the antibody to Sf21 insect cells is detected using standard flow cytometry techniques, readily available in the literature. […]
# [1] = type: physicochemical; settings: for aqueous stability at pH3: pH 3
# Protocol: A typical procedure for measuring the stability of a peptide derivative of the present invention is as follows, in which, to minimize microbial contamination and degradation, all equipment that is used to prepare peptide solutions is sterilized in an autoclave and all material transfers carried out in a Class II laminar flow cabinet. Approximately 20 ml of Mcllvaine's citric acid-phosphate buffer solution at pH 3 or 7.6 containing 0.02% sodium azide is filtered into a 50 mL bottle using a sterile 0.22 μm filter unit and a 20 ml syringe. Approximately 1.2 mg of peptide is accurately weighed in a capped vial. Using a sterile pipette tip, sufficient buffer solution is added to the peptide in the vial to give a peptide concentration of 0.1 mg/ml. The vial is capped and shaken to dissolve the peptide. Using a sterile pipette tip, aliquots of approximately 1 ml of the peptide solution are transferred to 10 HPLC vials, which are then capped. 5 vials are stored at -18 and 37° C. The area of the peptide peak for the solution is determined by HPLC using appropriate standards initially and after storage at -18 and 37° C. for 1, 2, 3 and 4 weeks, using a fresh vial at each time point with duplicate sample injections. The percentage of peptide remaining after storage at 37° C. at each time point is determined from the ratio of the area of the peptide peak at each time point to the initial area. Preferred peptide derivatives of the present invention have greater than 90%, and preferably greater than 95%, of peptide remaining after storage at 37° C. at both pH 3 and 7.6.
Substance,concentration showing significant binding to HLA-DR4Dw4 in Test A (HLA-DR4Dw4),aqueous stability at pH3 [1],aqueous stability at pH 7.6 [1]
Phv-Ala-Arg-Ala-IIb-Ala-Arg-Ala-Papa-NH2 [Example 23],< 0.1 µM,good aqueous stability,good aqueous stability
Phv-Arg-Ala-Ala-Ala-Val-IIb-Ala-Pip-NH2 [Example 5],< 0.1 µM,good aqueous stability,good aqueous stability
Phv-Gap(Me)4 -Ala-Ala-Ala-Thr-IIb-Ala-Papa-NH2 [Example 16],< 0.1 µM,good aqueous stability,good aqueous stability
